Experimental data taken from ChEMBL document CHEMBL5465560, “Selectivity Literature for EUbOPEN Chemogenomic Library” (2024).

Columns and labels:
[1] = tested on: Tyrosine-protein kinase ABL1 (Homo sapiens), P00519 [H396P]; experiment: Selectivity interaction (KinomeScan (DiscoverX)) EUB0001079a ABL1; details: at 1 µM
[2] = target: Protein polybromo-1 (Homo sapiens) (UniProt Q86U86); experiment: Selectivity interaction (Human bromodomain panel (DSF assay)) EUB0000233b PBRM1
[3] = target: Serine/threonine-protein kinase 16 (Homo sapiens, UniProt O75716); experiment: Selectivity interaction (Enzymatic assay) EUB0001550a STK16
[4] = target: T1, Ankyrin repeat and protein kinase domain-containing protein 1 (Homo sapiens) (UniProt Q8NFD2); details: at 10 µM
T1 sequence (whole entry): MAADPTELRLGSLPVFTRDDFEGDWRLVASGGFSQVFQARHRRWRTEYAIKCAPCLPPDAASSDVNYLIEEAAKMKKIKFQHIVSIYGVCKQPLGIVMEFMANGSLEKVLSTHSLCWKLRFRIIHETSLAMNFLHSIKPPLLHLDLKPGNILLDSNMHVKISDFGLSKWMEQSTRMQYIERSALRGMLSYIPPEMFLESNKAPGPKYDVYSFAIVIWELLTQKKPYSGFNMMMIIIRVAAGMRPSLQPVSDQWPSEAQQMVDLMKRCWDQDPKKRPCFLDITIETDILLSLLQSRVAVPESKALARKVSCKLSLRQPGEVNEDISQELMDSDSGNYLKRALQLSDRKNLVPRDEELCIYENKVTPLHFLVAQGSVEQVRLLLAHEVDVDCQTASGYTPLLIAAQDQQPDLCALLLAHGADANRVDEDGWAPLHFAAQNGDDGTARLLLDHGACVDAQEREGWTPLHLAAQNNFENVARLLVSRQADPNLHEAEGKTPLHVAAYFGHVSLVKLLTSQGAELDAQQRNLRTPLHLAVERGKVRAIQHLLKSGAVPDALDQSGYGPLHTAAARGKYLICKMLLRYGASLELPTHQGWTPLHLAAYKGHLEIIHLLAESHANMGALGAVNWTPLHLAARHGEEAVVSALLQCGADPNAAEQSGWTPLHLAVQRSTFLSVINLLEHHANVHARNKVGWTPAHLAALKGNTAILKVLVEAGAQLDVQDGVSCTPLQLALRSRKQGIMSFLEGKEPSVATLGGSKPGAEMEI

[5] = target: T2, Serine/threonine-protein kinase Nek11 (Homo sapiens) (UniProt Q8NG66); experiment: Selectivity interaction (KinomeScan (DiscoverX)) EUB0000595a NEK11; details: at 10 µM
T2 sequence (whole entry): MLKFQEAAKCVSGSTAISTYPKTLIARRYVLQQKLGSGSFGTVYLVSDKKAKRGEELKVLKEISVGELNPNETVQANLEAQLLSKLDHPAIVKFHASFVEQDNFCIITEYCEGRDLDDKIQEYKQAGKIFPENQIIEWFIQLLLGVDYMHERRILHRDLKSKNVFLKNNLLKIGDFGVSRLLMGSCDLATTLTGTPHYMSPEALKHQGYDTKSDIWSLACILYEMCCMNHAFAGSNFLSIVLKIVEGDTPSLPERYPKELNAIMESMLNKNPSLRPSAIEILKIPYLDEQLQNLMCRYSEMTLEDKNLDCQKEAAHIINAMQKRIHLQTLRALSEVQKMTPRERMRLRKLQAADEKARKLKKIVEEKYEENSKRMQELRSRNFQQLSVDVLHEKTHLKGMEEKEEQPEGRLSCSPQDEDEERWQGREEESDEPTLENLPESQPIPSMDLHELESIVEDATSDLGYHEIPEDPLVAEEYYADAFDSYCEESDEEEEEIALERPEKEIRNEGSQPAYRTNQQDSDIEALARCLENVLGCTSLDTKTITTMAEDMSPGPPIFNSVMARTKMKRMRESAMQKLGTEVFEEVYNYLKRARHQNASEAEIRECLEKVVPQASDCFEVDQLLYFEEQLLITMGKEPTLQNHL

[6] = target: T3, Ephrin type-B receptor 4 (Homo sapiens) (UniProt P54760); experiment: Selectivity interaction (Kinase screening (Nanosyn)) EUB0000604a EPHB4
T3 sequence (whole entry): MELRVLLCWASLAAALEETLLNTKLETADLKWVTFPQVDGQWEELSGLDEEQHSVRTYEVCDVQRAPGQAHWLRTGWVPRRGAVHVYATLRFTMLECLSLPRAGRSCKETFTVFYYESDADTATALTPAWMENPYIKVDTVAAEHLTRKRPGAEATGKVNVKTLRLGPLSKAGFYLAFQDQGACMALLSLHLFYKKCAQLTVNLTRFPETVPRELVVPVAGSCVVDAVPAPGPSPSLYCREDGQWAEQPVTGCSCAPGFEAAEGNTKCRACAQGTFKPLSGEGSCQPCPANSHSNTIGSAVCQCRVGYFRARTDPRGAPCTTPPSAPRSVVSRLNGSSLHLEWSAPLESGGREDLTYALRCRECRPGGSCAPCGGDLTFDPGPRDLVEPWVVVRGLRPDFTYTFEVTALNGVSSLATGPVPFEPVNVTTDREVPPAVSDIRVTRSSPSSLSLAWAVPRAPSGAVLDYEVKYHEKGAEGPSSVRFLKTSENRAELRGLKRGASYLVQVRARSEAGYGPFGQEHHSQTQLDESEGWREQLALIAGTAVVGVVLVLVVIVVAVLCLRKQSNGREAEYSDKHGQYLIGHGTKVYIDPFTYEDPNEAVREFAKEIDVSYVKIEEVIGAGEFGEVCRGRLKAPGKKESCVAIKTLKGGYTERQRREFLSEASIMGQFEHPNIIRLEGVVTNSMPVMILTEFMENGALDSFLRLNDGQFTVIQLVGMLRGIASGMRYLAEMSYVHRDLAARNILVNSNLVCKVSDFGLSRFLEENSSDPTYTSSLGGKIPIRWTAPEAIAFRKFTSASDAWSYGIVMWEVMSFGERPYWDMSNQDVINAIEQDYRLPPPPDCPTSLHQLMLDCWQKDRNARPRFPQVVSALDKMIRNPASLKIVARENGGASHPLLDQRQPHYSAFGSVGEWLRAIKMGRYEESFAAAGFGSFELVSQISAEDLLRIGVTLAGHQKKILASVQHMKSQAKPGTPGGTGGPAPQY

[7] = target: Tyrosine-protein kinase HCK (Homo sapiens) (UniProt P08631); experiment: Selectivity interaction (KinomeScan (DiscoverX)) EUB0000695a HCK; details: at 100 nM
[8] = target: MAP/microtubule affinity-regulating kinase 3 (Homo sapiens) (UniProt P27448); experiment: Selectivity interaction (Kinase panel (Z-LYTE Assay)) EUB0001632a MARK3; details: at 10 µM
Sequence of MAP/microtubule affinity-regulating kinase 3 (Homo sapiens) (P27448 whole entry, looked up): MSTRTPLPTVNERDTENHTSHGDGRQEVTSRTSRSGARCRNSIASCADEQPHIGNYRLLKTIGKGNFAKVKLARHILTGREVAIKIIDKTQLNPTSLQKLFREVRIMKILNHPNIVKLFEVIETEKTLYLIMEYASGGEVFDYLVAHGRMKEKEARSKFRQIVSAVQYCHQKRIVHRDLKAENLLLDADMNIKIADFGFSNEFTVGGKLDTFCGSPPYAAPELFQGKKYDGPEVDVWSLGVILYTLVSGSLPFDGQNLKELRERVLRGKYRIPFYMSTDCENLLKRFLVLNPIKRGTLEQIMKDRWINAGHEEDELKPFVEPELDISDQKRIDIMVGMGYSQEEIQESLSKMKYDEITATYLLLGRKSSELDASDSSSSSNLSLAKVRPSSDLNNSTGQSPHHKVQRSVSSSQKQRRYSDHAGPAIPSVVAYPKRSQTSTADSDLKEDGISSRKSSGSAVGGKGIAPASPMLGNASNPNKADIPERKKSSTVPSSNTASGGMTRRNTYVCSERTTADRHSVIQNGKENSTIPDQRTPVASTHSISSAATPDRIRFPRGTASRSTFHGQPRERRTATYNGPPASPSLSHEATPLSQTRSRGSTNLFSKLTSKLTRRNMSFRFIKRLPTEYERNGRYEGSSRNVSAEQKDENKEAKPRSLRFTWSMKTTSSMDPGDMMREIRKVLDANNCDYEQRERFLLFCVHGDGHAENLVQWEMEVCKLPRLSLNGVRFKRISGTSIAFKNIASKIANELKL

Sequence of Serine/threonine-protein kinase 16 (O75716 whole entry, the tested form may be a part): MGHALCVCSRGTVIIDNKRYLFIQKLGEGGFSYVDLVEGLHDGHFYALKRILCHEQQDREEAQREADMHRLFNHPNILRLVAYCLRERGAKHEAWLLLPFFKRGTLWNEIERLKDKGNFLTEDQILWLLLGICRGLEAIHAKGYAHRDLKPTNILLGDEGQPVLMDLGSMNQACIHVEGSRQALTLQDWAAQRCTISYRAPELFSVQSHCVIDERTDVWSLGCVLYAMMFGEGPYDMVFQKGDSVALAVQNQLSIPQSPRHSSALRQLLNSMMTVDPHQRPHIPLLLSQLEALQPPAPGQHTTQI
Sequence of Protein polybromo-1 (Homo sapiens) (Q86U86 whole entry): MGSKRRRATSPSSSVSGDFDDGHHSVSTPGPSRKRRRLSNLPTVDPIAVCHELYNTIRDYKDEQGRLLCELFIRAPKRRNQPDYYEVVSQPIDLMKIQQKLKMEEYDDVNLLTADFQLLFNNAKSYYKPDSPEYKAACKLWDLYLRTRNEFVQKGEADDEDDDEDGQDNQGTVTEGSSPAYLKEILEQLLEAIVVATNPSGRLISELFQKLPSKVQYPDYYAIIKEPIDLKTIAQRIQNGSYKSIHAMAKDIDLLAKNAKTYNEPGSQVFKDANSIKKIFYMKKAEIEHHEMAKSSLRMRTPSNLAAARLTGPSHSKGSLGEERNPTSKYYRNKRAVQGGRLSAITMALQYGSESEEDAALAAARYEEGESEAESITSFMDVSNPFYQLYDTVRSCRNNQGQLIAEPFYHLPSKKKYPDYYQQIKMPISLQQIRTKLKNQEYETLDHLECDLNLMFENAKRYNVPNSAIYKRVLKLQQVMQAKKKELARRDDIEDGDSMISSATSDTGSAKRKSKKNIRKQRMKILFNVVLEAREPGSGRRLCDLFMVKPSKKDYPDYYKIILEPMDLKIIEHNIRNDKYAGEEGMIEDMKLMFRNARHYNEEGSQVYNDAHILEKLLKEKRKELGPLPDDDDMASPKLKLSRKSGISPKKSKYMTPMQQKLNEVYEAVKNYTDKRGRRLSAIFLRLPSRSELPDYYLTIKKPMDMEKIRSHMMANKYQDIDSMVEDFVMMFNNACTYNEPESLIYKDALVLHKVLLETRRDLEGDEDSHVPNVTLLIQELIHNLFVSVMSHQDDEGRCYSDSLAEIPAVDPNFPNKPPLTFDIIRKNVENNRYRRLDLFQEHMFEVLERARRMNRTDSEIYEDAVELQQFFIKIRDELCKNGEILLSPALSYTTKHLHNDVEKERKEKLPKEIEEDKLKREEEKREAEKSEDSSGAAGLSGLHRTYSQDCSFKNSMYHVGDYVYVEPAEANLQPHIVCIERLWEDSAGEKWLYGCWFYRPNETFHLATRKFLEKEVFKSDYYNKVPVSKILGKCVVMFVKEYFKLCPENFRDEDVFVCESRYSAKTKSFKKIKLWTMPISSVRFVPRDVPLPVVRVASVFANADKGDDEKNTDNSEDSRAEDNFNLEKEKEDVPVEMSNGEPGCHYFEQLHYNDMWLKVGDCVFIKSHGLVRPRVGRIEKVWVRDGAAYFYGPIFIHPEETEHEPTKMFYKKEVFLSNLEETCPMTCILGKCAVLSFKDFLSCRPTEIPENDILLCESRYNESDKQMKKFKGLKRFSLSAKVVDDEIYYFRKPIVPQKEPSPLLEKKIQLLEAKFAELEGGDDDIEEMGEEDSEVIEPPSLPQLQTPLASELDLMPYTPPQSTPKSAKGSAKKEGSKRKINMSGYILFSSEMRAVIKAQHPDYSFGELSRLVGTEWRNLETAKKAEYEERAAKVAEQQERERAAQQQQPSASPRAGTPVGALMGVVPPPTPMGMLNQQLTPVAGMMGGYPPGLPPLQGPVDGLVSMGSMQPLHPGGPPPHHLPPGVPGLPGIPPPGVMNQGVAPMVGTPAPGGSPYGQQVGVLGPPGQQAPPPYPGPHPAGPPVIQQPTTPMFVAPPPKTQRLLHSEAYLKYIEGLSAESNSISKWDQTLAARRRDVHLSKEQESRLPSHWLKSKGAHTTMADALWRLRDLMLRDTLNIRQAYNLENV
Sequence of Tyrosine-protein kinase HCK (Homo sapiens) (P08631 2-526 limits assumed): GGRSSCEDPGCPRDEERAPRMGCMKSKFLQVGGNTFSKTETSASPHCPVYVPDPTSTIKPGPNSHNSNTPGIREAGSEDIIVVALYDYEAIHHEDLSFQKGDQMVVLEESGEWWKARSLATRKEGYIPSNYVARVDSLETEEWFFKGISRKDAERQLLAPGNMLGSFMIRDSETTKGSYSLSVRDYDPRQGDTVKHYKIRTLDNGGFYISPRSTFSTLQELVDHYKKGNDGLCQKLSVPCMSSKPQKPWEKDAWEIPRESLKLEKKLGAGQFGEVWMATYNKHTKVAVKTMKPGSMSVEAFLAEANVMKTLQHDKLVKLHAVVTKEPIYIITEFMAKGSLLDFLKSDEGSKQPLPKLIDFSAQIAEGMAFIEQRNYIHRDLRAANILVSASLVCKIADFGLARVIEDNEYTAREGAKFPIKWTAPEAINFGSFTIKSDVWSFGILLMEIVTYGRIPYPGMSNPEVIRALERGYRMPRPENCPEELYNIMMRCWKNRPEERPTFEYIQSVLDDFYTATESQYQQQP

SMILES: Nc1cnc(N2CCc3cc(S(=O)(=O)Nc4c(F)cc(Cl)cc4F)cc(N4CCCC4=O)c32)nc1 [TP-020n]
- % of control [1]: 86%

SMILES: CN(C)CCCOc1ccc(-c2cc(NCCCn3cccn3)nc(S(C)(=O)=O)n2)cc1
- dTM [2]: < 2 K

SMILES: CN(C)CC#Cc1ccc2[nH]c3c(c2c1)-c1nc(N)ncc1CCC3
- IC50 [3]: 560 nM

SMILES: CCN(CC)CCCCNc1ncc2cc(-c3cc(OC)cc(OC)c3)c(NC(=O)NC(C)(C)C)nc2n1
- % of control [4]: 100%

SMILES: COCC(=O)NC/C=C/c1ccc2ncnc(Nc3ccc(Oc4ccc(C)nc4)c(C)c3)c2c1 [CP-724714]
- % of control [5]: 100%

SMILES: Cc1cnc(Nc2ccc(F)cc2Cl)nc1-c1c[nH]c(C(=O)N[C@H](CO)c2cccc(Cl)c2)c1
- % of inhibition [6]: 0%

SMILES: Cc1cc(F)c(C(=O)Nc2cccc(-c3nncn3C(C)C)n2)cc1-n1cnc(C2CC2)c1
- % of control [7]: 100%

SMILES: Cn1cc(-n2cnc3c(NCc4nc5cc(Cl)c(Cl)cc5[nH]4)nc(N4CCOCC4)nc32)cn1
- % of control [8]: 18.1%
